Results as given in the NIST ThermoML archive (doi:10.1021/acs.jced.6b00862).
± gives the expanded uncertainty stated by the source.

Assay: wn = mass fraction of the nth substance listed
Settings: 298 K, 100 kPa, Liquid, Alternating current cell with electrodes

electrical conductivity (w1 = 0.0105): 0.0194 ± 0.00039 S/m | electrical conductivity (w1 = 0.021): 0.0262 ± 0.00052 S/m | electrical conductivity (w1 = 0.0315): 0.0318 ± 0.00064 S/m | electrical conductivity (w1 = 0.0419): 0.0346 ± 0.00069 S/m | electrical conductivity (w1 = 0.0523): 0.0373 ± 0.00075 S/m
Structure (SMILES): OCCNCCO [diethanolamine] + O
